# Data published in patent publication US9102712B2, “Dendrimeric peptides, pharmaceutical compositions and methods of using the same” (New York University, priority 2010, dated 2015).
# Square brackets hold non-standard residues; d marks the D form. Side chains are listed from the residue outwards. Peptide text beside a SMILES is read from it. * marks the point of attachment. Lys(α,ε-(ArgTrp)2) = N=C(N)NCCC[C@H](N)C(=O)N[C@@H](Cc1c[nH]c2ccccc12)C(=O)NCCCC[C@H](NC(=O)[C@H](Cc1c[nH]c2ccccc12)NC(=O)[C@@H](N)CCCNC(=N)N)C(=O)*; Trp(2,5,7-tBu3) = CC(C)(C)c1cc(C(C)(C)C)c2[nH]c(C(C)(C)C)c(C[C@H](N)C(=O)O)c2c1; βAla = NCCC(=O)O
# What was measured:
# [1] = tested on: E. coli (D31); assay: Antibacterial broth microdilution, E. coli; assay type: cell-based; conditions: for IC50 E. Coli D31: 50% inhibition of growth, MH broth, 18 hrs at 37° C., Table 3
# Protocol: (§1) The antibacterial activity of each dendrimer peptide was tested by following standard broth microdilution protocols recommended by the National Committee for Clinical Laboratory Standard (NCCLS 2004). Antibacterial testing was carried out on gram-negative bacteria E. coli (D31) and gram-positive bacteria S. aureus in liquid media Mueller Hinton (MH) Brooth according to literature procedures. Dendrimers were dissolved in PBS buffer (high salt, 150 mM NaCl; low salt, 75 mM NaCl), pH 7.4 to make series of stocks of 2-fold dilution. Cultures were grown overnight on Mueller Hinton (MH) agar plates, and 3 to 5 uniform colonies of each organism were transferred with an inoculating loop to test tubes containing MH broth, and incubated at 37° C. overnight, then diluted until the turbidity matched that of the 0.5 McFarland standard (approximately 1.5×10^8 cells/mL). The resulting solutions were further diluted to give approximately 2×10^4-2×10^5 CFU/mL. 100 μL of the bacterial inoculums were incubated in 96-well plates with varying volumes of stock solution and PBS buffer to bring the total volume to 200 μL. Solutions containing the same volumes of PBS buffer and MH Broth, with and without bacteria were used as controls. After these plates were incubated with shaking for 18 hrs at 37° C. to ensure the cultures had reached log phase growth, the absorbance readings were recorded at a wavelength of 600 nm using a Absorbance Microplate Reader BIO-TEK ELX800. The 18-hour absorbance data were used to calculate the percent inhibition for each test condition. All assays were carried out in triplicate. The experimental data were fitted to sigmoidal dose-response curves using GraphPad Prism (GraphPad Software Inc., San Diego, Calif., USA).
# [2] = tested on: S. aureus; assay type: cell-based
# Protocol: as §1
# [3] = tested on: fresh sheep RBC; assay type: cell-based; conditions: red cells of sheep, 1 h
# Protocol: Hemolytic activity of dendrimeric compounds were assessed on fresh sheep RBC (Fitzgerald, Inc., MA). Dendrimer concentrations corresponding to 50% hemolysis were used as hemolytic dose (HD50) determined from dose-response curve. The fresh sheep RBC was washed with PBS buffer (thrice) and aliquots of cell suspension were mixed in eppendorf tubes with varying volumes of stocks and buffer for a total volume of 400 μL. These tubes were incubated at 37° C. for 1 hr, and then spun down at 3,000 rpm for 5 mins. The resulting supernatant was trasferred to a 96-well plate and the absorbances at 540 nm were measured in an Absorbance Microplate Reader BIO-TEK ELX800. Zero hemolysis and 100% hemolysis controls were obtained by incubating the cells with buffer and 1% Triton X-100, respectively. Hemolytic index (HI) was defined as HI=HD50/IC50 (Table 1 and 3).
# [4] = tested on: MRSA; assay type: cell-based, Methicillin-resistant Staphylococcus aureus; conditions: 18 h
# Protocol: as §1
# [5] = tested on: B. Subtilis; assay type: cell-based; conditions: 18 h
Compound,"E. Coli HI (hemolytic index) ([1]; HI=HD50/IC50, E. coli)",S. Aureus IC50 ([2]; 18 h) [µg/mL],"S. Aureus HI (hemolytic index) ([2]; HI=HD50/IC50, S. aureus)",Hemolysis HD50 [3] [µg/mL],IC50 E. Coli D31 [1] [µg/mL],IC50 MRSA [4] [µg/mL],IC50 B. Subtilis [5] [µg/mL],HD50 Hemolysis [3] [µg/mL]
"N=C(N)NCCC[C@H](N)C(=O)N[C@@H](Cc1c[nH]c2ccccc12)C(=O)NCCCC[C@H](NC(=O)[C@H](Cc1c[nH]c2ccccc12)NC(=O)[C@@H](N)CCCNC(=N)N)C(=O)NCCCC[C@H](NC(=O)[C@H](CCCCNC(=O)[C@H](Cc1c[nH]c2ccccc12)NC(=O)[C@@H](N)CCCNC(=N)N)NC(=O)[C@H](Cc1c[nH]c2ccccc12)NC(=O)[C@@H](N)CCCNC(=N)N)C(=O)NCCC(N)=O [(RW)4D, reference compound] (H-RWK([Trp-Arg])K(Lys(α,ε-(ArgTrp)2))[βAla]-NH2; N-terminus and C-terminus assumed)",310,16,88,1400,,,,
"N=C(N)NCCC[C@H](NC(=O)[C@H](Cc1c[nH]c2ccccc12)NC(=O)[C@@H](N)CCCNC(=N)N)C(=O)NCCCC[C@H](NC(=O)[C@H](CCCNC(=N)N)NC(=O)[C@H](Cc1c[nH]c2ccccc12)NC(=O)[C@@H](N)CCCNC(=N)N)C(=O)NCCC(N)=O [Dendrimer 2D-04, reference compound] (H-RWRK([Arg-Trp-Arg])[βAla]-NH2)",,,,,6.8,56.6,6.1,3428
CC(C)(C)c1cc(C(C)(C)C)c2[nH]c(C(C)(C)C)c(CC(NC(=O)[C@@H](N)CCCNC(=N)N)C(=O)N[C@@H](CCCNC(=N)N)C(=O)NCCCC[C@H](NC(=O)[C@H](CCCNC(=N)N)NC(=O)C(Cc3c(C(C)(C)C)[nH]c4c(C(C)(C)C)cc(C(C)(C)C)cc34)NC(=O)[C@@H](N)CCCNC(=N)N)C(=O)NCCC(N)=O)c2c1 (stereo partly drawn) [Dendrimer 2D-24],,,,,0.5,0.2,0.8,48
"N=C(N)NCCC[C@H](NC(=O)[C@@H](N)Cc1c[nH]c2ccccc12)C(=O)NCCCC[C@H](NC(=O)[C@H](CCCCNC(=O)[C@H](CCCNC(=N)N)NC(=O)[C@@H](N)Cc1c[nH]c2ccccc12)NC(=O)[C@H](CCCNC(=N)N)NC(=O)[C@@H](N)Cc1c[nH]c2ccccc12)C(=O)NCCC(N)=O [Dendrimer 3D-03, reference compound] (H-WRK([Arg-Trp])K([Arg-Trp])[βAla]-NH2)",,,,,12.1,>100,14.3,3197
"N=C(N)NCCC[C@H](NC(=O)[C@H](Cc1c[nH]c2ccccc12)NC(=O)[C@@H](N)CCCNC(=N)N)C(=O)NCCCC[C@H](NC(=O)[C@H](CCCCNC(=O)[C@H](CCCNC(=N)N)NC(=O)[C@H](Cc1c[nH]c2ccccc12)NC(=O)[C@@H](N)CCCNC(=N)N)NC(=O)[C@H](CCCNC(=N)N)NC(=O)[C@H](Cc1c[nH]c2ccccc12)NC(=O)[C@@H](N)CCCNC(=N)N)C(=O)NCCC(N)=O [Dendrimer 3D-06, reference compound] (H-RWRK([Arg-Trp-Arg])K([Arg-Trp-Arg])[βAla]-NH2)",,,,,1.8,17.3,1.9,2336
"CC(C)(C)c1cc(C(C)(C)C)c2[nH]c(C(C)(C)C)c(C[C@H](N)C(=O)N[C@@H](CCCNC(=N)N)C(=O)NCCCC[C@H](NC(=O)[C@H](CCCCNC(=O)[C@H](CCCNC(=N)N)NC(=O)[C@@H](N)Cc3c[nH]c4ccccc34)NC(=O)[C@H](CCCNC(=N)N)NC(=O)[C@@H](N)Cc3c[nH]c4ccccc34)C(=O)NCCC(N)=O)c2c1 [Dendrimer 3D-13] (H-WRK([Arg-Trp])K([Arg-Trp(2,5,7-tBu3)])[βAla]-NH2)",,,,,1.0,1.7,1.9,270
